# Data from PubChem BioAssay AID1918939 (Molecular Pharmacology Branch, DTP, NCI, 2023).
# Tested on: 653999-131-R-J2-PDC complex spheroid viability
# Experiment: Anticancer human tumor 653999-131-R-J2-PDC patient-derived lung adenocarcinoma cell line growth inhibition
# Details: for IC50: curve of first compound; for viability, T/C: stronger effect = lower value
# Source text: Multicellular complex tumor spheroid response to LSD1 Inhibitor Iadademstat in combination with a variety of drugs and investigational agents in selected tumor cell lines
# The current study was undertaken to assess response to LSD1 inhibitors in combination with standard-of-care drugs and investigational agents in solid tumor complex spheroid models as well as in the K-562 leukemia. Complex spheroids include a stromal component modeled by human endothelial cells (HUVEC) and fibroblasts modeled by human mesenchymal stem cells (MSCs). The concentration ranges selected for each drug and investigational agent were based upon clinically achievable concentrations if the clinical Cmax of the agent was known.
# Compounds. The drugs and investigational agents used in this study are listed on Table 1. All of the agents used, including staurosporine (NSC755774) and gemcitabine (NSC613327), were obtained from the Developmental Therapeutics Program, NCI. FDA-approved anticancer drugs are available from the NCI at http://dtp.nci.nih.gov/branches/dscb/oncology_drugset_explanation.html. Drugs and investigational agents were >95% pure by proton nuclear magnetic resonance (NMR) and liquid chromatography/mass spectrometry (LC/MS). Stock solutions were prepared at 400x in DMSO, stored at -70 degrees C, and diluted in fresh medium prior to their use. The final concentration of DMSO in cell culture wells never exceeded 0.25% (v/v). The FDA-approved anticancer drug set is available from the Developmental Therapeutics Program at https://dtp.cancer.gov/organization/dscb/obtaining/available_plates.htm. All drugs and investigational agents were tested over a range starting from a high concentration at or near the clinical Cmax and decreasing in half-log increments. If the clinical Cmax for an agent had not been determined, the highest concentration tested was 10 microM.
# Cell Lines. The patient-derived cancer cell (PDC) lines: 292921-168-R-J2-PDC, K24384-001-R-PDC, and 521955-158-R2-J5-PDC pancreatic carcinomas, 556581-035-R-J1 ovarian carcinoma, 324938-238-R-J1-PDC, 855422-203-R-J1-PDC and 883617-216-R-J1-PDC urothelial bladder carcinomas, 743489-274-T-PDC renal cell carcinoma, 138582-R-J1 Merkel cell tumor, K60290-347-R-J1 and K57222-313-R-J1-PDC glioblastomas, 653999-131-R-J2-PDC, LG0703-F948-PDC, and 349418-098-R-PDC non-small cell lung carcinomas, 885512-296-R-J2-PDC, 171881-019-R-J1-PDC breast carcinomas and 186277-243-T-J2-PDC and 233499-124-R-J2-PDC colon carcinomas were obtained from the NCI Patient-Derived Models Repository (PDMR, https://pdmr.cancer.gov). The established cell lines NCI/ADR-RES (RRID:CVCL_14520 and OVCAR-5 (RRID:CVCL_1628) ovarian carcinomas, 786-O (RRID:CVCL_1051) and A498 (RRID:CVCL_A498) renal cell carcinoma, NCI-H211 (ATCC, cat. CRL-5824; RRID:CVCL_1529), NCI-H196 (ATCC, cat. CRL-5823, RRID:CVCL_1509), SW 1271 (ATCC, cat. CRL-2177, RRID:CVCL_1716) and NCI-H1876 (ATCC, cat. CRL-5902, RRID:CVCL_1503) small cell lung carcinomas, MDA-MB-231 (RRID:CVCL_0062) and MDA-MB-468 (RRID:CVCL_0419)breast carcinomas (10-12). Pooled donor human umbilical vein endothelial cells (HUVEC, Lonza, cat. CC-2519) and human mesenchymal stem cells (hMSC, Lonza, cat. PT-2501) were purchased from Lonza (Walkersville, MD).
# Cell Culture. All cells were maintained in an incubator at 37 degrees C and 5% CO2 with 95% humidity. The PDC lines were cultured according to standard operating procedures established by the NCI PDMR (https://pdmr.cancer.gov). Briefly all PDCs were thawed and cultured in Matrigel-coated flasks prepared with a working solution of 1X Ham's F-12 nutrient mix, without supplementation (Invitrogen, Waltham, MA, cat. 11765054), 100 U/mL penicillin-streptomycin (Invitrogen, cat. 15140122), and 2.5% Matrigel (Corning Inc., Corning, NY, cat. 354248) for the first three passages. […]
# 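Note: spheroids exposed to agents for seven days before readout.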
smiles,measurement,setting,value
Nc1ccn(C2OC(CO)C(O)C2(F)F)c(=O)n1 (stereo not given) + NC1CC1c1ccc(-c2cccc(O)c2)cc1,IC50,second compound 0.1 µM,133 nM
same,IC50,second compound 0.316 µM,37.9 nM
same,IC50,second compound 1 µM,24.9 nM
same,IC50,second compound 3.16 µM,68.3 nM
same,IC50,second compound 10 µM,> 300 nM
same,"viability, T/C","second compound 0.1 µM, first compound 0.000949 µM",105%
same,"viability, T/C","second compound 0.1 µM, first compound 0.003 µM",92.4%
same,"viability, T/C","second compound 0.1 µM, first compound 0.00949 µM",67.2%
same,"viability, T/C","second compound 0.1 µM, first compound 0.03 µM",61.3%
same,"viability, T/C","second compound 0.1 µM, first compound 0.0949 µM",43.6%
same,"viability, T/C","second compound 0.1 µM, first compound 0.3 µM",52.2%
same,"viability, T/C","second compound 0.316 µM, first compound 0.000949 µM",82.1%
same,"viability, T/C","second compound 0.316 µM, first compound 0.003 µM",77.2%
same,"viability, T/C","second compound 0.316 µM, first compound 0.00949 µM",75.6%
same,"viability, T/C","second compound 0.316 µM, first compound 0.03 µM",51.2%
same,"viability, T/C","second compound 0.316 µM, first compound 0.0949 µM",43.5%
same,"viability, T/C","second compound 0.316 µM, first compound 0.3 µM",47%
same,"viability, T/C","second compound 1 µM, first compound 0.000949 µM",75.1%
same,"viability, T/C","second compound 1 µM, first compound 0.003 µM",80.9%
same,"viability, T/C","second compound 1 µM, first compound 0.00949 µM",64.7%
same,"viability, T/C","second compound 1 µM, first compound 0.03 µM",48.6%
same,"viability, T/C","second compound 1 µM, first compound 0.0949 µM",45.2%
same,"viability, T/C","second compound 1 µM, first compound 0.3 µM",44.9%
same,"viability, T/C","second compound 3.16 µM, first compound 0.000949 µM",83.4%
same,"viability, T/C","second compound 3.16 µM, first compound 0.003 µM",74.1%
same,"viability, T/C","second compound 3.16 µM, first compound 0.00949 µM",63.4%
same,"viability, T/C","second compound 3.16 µM, first compound 0.03 µM",57.4%
same,"viability, T/C","second compound 3.16 µM, first compound 0.0949 µM",47.3%
same,"viability, T/C","second compound 3.16 µM, first compound 0.3 µM",39.7%
same,"viability, T/C","second compound 10 µM, first compound 0.000949 µM",76%
same,"viability, T/C","second compound 10 µM, first compound 0.003 µM",70.8%
same,"viability, T/C","second compound 10 µM, first compound 0.00949 µM",68.9%
same,"viability, T/C","second compound 10 µM, first compound 0.03 µM",53.1%
same,"viability, T/C","second compound 10 µM, first compound 0.0949 µM",55.4%
same,"viability, T/C","second compound 10 µM, first compound 0.3 µM",51.5%
O=C(c1cc(Cc2n[nH]c(=O)c3ccccc23)ccc1F)N1CCN(C(=O)C2CC2)CC1 + NC1CC1c1ccc(-c2cccc(O)c2)cc1,IC50,second compound 0.1 µM,> 10000 nM
same,IC50,second compound 0.316 µM,> 10000 nM
same,IC50,second compound 1 µM,> 10000 nM
same,IC50,second compound 3.16 µM,> 10000 nM
same,IC50,second compound 10 µM,> 10000 nM
same,"viability, T/C","second compound 0.1 µM, first compound 0.0316 µM",102%
same,"viability, T/C","second compound 0.1 µM, first compound 0.1 µM",106%
same,"viability, T/C","second compound 0.1 µM, first compound 0.316 µM",95.1%
same,"viability, T/C","second compound 0.1 µM, first compound 1 µM",89.1%
same,"viability, T/C","second compound 0.1 µM, first compound 3.16 µM",76.5%
same,"viability, T/C","second compound 0.1 µM, first compound 10 µM",66.1%
same,"viability, T/C","second compound 0.316 µM, first compound 0.0316 µM",93.8%
same,"viability, T/C","second compound 0.316 µM, first compound 0.1 µM",90.7%
same,"viability, T/C","second compound 0.316 µM, first compound 0.316 µM",82.6%
same,"viability, T/C","second compound 0.316 µM, first compound 1 µM",72%
same,"viability, T/C","second compound 0.316 µM, first compound 3.16 µM",59.9%
same,"viability, T/C","second compound 0.316 µM, first compound 10 µM",65.4%
same,"viability, T/C","second compound 1 µM, first compound 0.0316 µM",86.1%
same,"viability, T/C","second compound 1 µM, first compound 0.1 µM",80.4%
same,"viability, T/C","second compound 1 µM, first compound 0.316 µM",90.8%
same,"viability, T/C","second compound 1 µM, first compound 1 µM",64.3%
same,"viability, T/C","second compound 1 µM, first compound 3.16 µM",75.3%
same,"viability, T/C","second compound 1 µM, first compound 10 µM",63.5%
same,"viability, T/C","second compound 3.16 µM, first compound 0.0316 µM",78.5%
same,"viability, T/C","second compound 3.16 µM, first compound 0.1 µM",87.2%
same,"viability, T/C","second compound 3.16 µM, first compound 0.316 µM",87%
same,"viability, T/C","second compound 3.16 µM, first compound 1 µM",82.5%
same,"viability, T/C","second compound 3.16 µM, first compound 3.16 µM",71.4%
same,"viability, T/C","second compound 3.16 µM, first compound 10 µM",64.6%
same,"viability, T/C","second compound 10 µM, first compound 0.0316 µM",92.8%
same,"viability, T/C","second compound 10 µM, first compound 0.1 µM",79.7%
same,"viability, T/C","second compound 10 µM, first compound 0.316 µM",87.9%
same,"viability, T/C","second compound 10 µM, first compound 1 µM",78.3%
same,"viability, T/C","second compound 10 µM, first compound 3.16 µM",71.7%
same,"viability, T/C","second compound 10 µM, first compound 10 µM",58.5%
